Source: patent publication US6599906B1, “Method of local anesthesia and analgesia” (priority 2000, dated 2003)
“And” between values parts separate entries of the source, which are not always exact repeats. Equal entries are not always repeated. Where two headings read alike, the source gives them in different places.

What was measured:
[1] = tested on: pain induced by tooth pulp stimulation; type: in vivo, New Zealand white rabbits
tooth pain = conditions: background statement, patients; cited from earlier work
[2] = tested on: pain induced by tooth pulp stimulation; design: species or system rabbits; conditions: rabbit, in vivo; read-out: EC50 value and 95% confidence interval for dental local analgesia
rabbits [3] = conditions: rabbit, in vivo
rabbits [4] = conditions: rabbit, in vivo; remark: listed apart in the source
rabbits [5] = conditions: rabbit, in vivo; remark: listed apart in the source

In the case of `CCN(CC)CC(=O)Nc1c(C)cccc1C` [lidocaine], the “Percentage change in pain-inducing threshold voltage” value (“Percentage change” for short) ([1]; rabbit, in vivo) is reported as 30 ± 29% and 28 ± 36% and 26 ± 30% and 20 ± 32% and 24 ± 32% and 17 ± 21%, the “effect on the threshold voltage compared to the solvent control, in words” value ([1]; rabbit, in vivo) is reported as “markedly increased the threshold voltage” and the “synergistic activity with TTX, in words” value ([1]; rabbit, in vivo) is reported as “did not show a similar synergistic activity”.

For `CCN(CC)CCOC(=O)c1ccc(N)cc1` [procaine], the “Percentage change” value ([1]; 2% anesthetic, 20 μL to tooth pulp cavity, 10 min) was −2 ± 20%, the “Percentage change” value ([1]; 2% anesthetic, 20 μL to tooth pulp cavity, 20 min) was −2 ± 20% and the “Percentage change” value ([1]; 2% anesthetic, 20 μL to tooth pulp cavity, 30 min) was −4 ± 23%. The “Percentage change” value ([1]; 2% anesthetic, 20 μL to tooth pulp cavity, 40 min) was −3 ± 22%, the “Percentage change” value ([1]; 2% anesthetic, 20 μL to tooth pulp cavity, 50 min) was −2 ± 28% and the “Percentage change” value ([1]; 2% anesthetic, 20 μL to tooth pulp cavity, 60 min) was −1 ± 26%. For the same molecule, the “effect on the threshold voltage compared to the solvent control, in words” value ([1]; rabbit, in vivo) was “no clear effect on the threshold voltage” and the “period of partial pain relief as topical anesthetic for tooth pain” value (tooth pain) was “about 1 hour”.

With `CCCCNc1ccc(C(=O)OCCN(C)C)cc1` [tetracaine] the “Percentage change” value ([1]; 1% tetracaine (equal to 33 mM), 20 μL to tooth pulp cavity, 10 min) was 27 ± 30%, the “Percentage change” value ([1]; 1% tetracaine (equal to 33 mM), 20 μL to tooth pulp cavity, 20 min) was 32 ± 38% and the “Percentage change” value ([1]; 1% tetracaine (equal to 33 mM), 20 μL to tooth pulp cavity, 30 min) was 29 ± 31%. The “Percentage change” value ([1]; 1% tetracaine (equal to 33 mM), 20 μL to tooth pulp cavity, 40 min) was 32 ± 22%, the “Percentage change” value ([1]; 1% tetracaine (equal to 33 mM), 20 μL to tooth pulp cavity, 50 min) was 22 ± 15% and the “Percentage change” value ([1]; 1% tetracaine (equal to 33 mM), 20 μL to tooth pulp cavity, 60 min) was 16 ± 18%. The “Percentage change” value ([1]; Table 7, 1% tetracaine, 20 μL to tooth pulp cavity, 15 min) was 27 ± 30%, the “Percentage change” value ([1]; Table 7, 1% tetracaine, 20 μL to tooth pulp cavity, 45 min) was 32 ± 22% and the “effect on the threshold voltage compared to the solvent control, in words” value ([1]; rabbit, in vivo) was “markedly increased the threshold voltage”. The “period of partial pain relief as topical anesthetic for tooth pain” value (tooth pain) was “about 1 hour”.

With `NC1=N[C@H](O)[C@H]2[C@H]3O[C@]4(O)O[C@@H]([C@@H](O)[C@@]2(N1)[C@@H]4O)[C@]3(O)CO` [tetrodotoxin, Tetrodotoxin] the EC50 [2] was 1.04 ± 0.03 mM, the “onset of the effect of TTX increasing the threshold voltage” value ([1]; rabbit, in vivo) was 5 min and the “time at which peak of effect on threshold voltage was reached” value ([1]; rabbit, in vivo) was 1 h. For the same molecule, the “RR (respiratory rate)” value (rabbits [3]) was 99 ± 11 and 102 ± 2 and 102 ± 6 and 91 ± 10 and 94 ± 12 and 99 ± 5, the “effect on ECG, in words” value (rabbits [3]) was “did not suggest any significant effect” and the “effect on heart rate or respiratory rate, in words” value (rabbits [3]) was “did not significantly modify the heart rate or respiratory rate”. For the same molecule, the “rabbits manifesting increased excretion in the respiratory tract” value (rabbits [4]) was 4 out of 10, the ALP (rabbits [5]) was 69 ± 17 U/L and 71 ± 23 U/L and the ALT (rabbits [5]) was 67 ± 43 U/L and 53 ± 19 U/L. The BUN (rabbits [5]) was 8.4 ± 0.9 mmol/L and 8.5 ± 1.7 mmol/L, the CO2 in serum (rabbits [5]) was 26.4 ± 1.2 mmol/L and 30.0 ± 2.5 mmol/L and the “Ca^2+ in serum” value (rabbits [5]) was 3.26 ± 0.18 mmol/L and 3.34 ± 0.12 mmol/L. For the same molecule, the Cre (rabbits [5]) was 109 ± 12 µmol/L and 99 ± 6 µmol/L, the GTP (rabbits [5]) was 5.2 ± 1.3 U/L and 5.7 ± 2.1 U/L and the HCT (rabbits [5]) was 38.5 ± 3.4% and 33.6 ± 1.9%. For the same molecule, the HGB (rabbits [5]) was 12.4 ± 1.0 g/dL and 11.3 ± 0.6 g/dL, the IP (rabbits [5]) was 1.66 ± 0.23 mmol/L and 1.46 ± 0.40 mmol/L and the “K^+ in serum” value (rabbits [5]) was 3.8 ± 0.3 mmol/L and 3.8 ± 0.1 mmol/L. The LAP (rabbits [5]) was 109 ± 11 µmol/L and 108 ± 10 µmol/L, the MCH (rabbits [5]) was 22.2 ± 1.4 pg and 22.5 ± 1.1 pg and the MCHC (rabbits [5]) was 32.4 ± 1.3 g/dL and 33.6 ± 0.6 g/dL. The MCV (rabbits [5]) was 68.5 ± 2.8 fL and 66.9 ± 2.1 fL, the “Na^+ in serum” value (rabbits [5]) was 141.1 ± 1.1 mmol/L and 141.7 ± 1.8 mmol/L and the PLT (rabbits [5]) was 141 ± 120 ×10^3/μl and 159 ± 37 ×10^3/μl. The TBA (rabbits [5]) was 13.5 ± 12.0 U/L and 14.5 ± 9.2 U/L, the TP (rabbits [5]) was 60 ± 6 g/L and 57 ± 6 g/L and the WBC (rabbits [5]) was 4.2 ± 1.2 ×10^3/μl and 6.6 ± 2.4 ×10^3/μl. The “effect on the blood cellular or biochemical parameters, in words” value (rabbits [5]) was “did not have any significant effect”.
